Laboratory results as given in patent US7498029B2, “Photoimmunotherapies for cancer using combination therapies” (The General Hospital Corporation, priority 2001, dated 2009).
Entries after “also recorded” stand apart in the source; their conditions may differ.

Legend:
Akt-1 = test: EGF-induced Akt-1 phosphorylation, Western blot in OVCAR-5 cells; assay type: cell-based, human
Experimental: (§1) Twenty-four hours after photodynamic treatment as described above, OVCAR 5 cells in the groups to be stimulated with EGF were incubated for 15 min with 10 ng/ml EGF in prewarmed culture medium. The groups that were not stimulated with EGF only received prewarmed culture medium. After the 15 minute incubation, cells were kept on ice and cell lysates were collected in RIPA buffer (containing 0.1% SDS and 1% NP-40). After protein determination by a modified Lowry assay (Biorad, Hercules, Calif.), the proteins were run on SDS-PAGE, transferred to a polyvinylidene diflouride (PVDF) membrane (Immobilon-P, Millipore, Bedford, Mass.) and probed with the first antibody. To detect the phosphorylation of the EGFR, the anti-phosphotyrosine antibody 4G10 (New England Biolabs; Beverly, Mass.) was used. A secondary goat anti-mouse antibody, coupled to horseradish peroxidase (Biorad), was used in combination with a chemiluminescence kit (Amersham, Arlington Heights, Ill.) to visualize the specific bands. Western blots were reprobed with anti-actin (Santa Cruz Biotechnology, Santa Cruz, Calif.) to control for equal loading.
(§2) Two important pathways which are regulated by EGFR are the PI3K-Akt/PKB-1 and the Ras-MAPK/ERK pathway. These signaling molecules are implicated in a variety oncogenic pathways. […]

[1] = Body weight loss of xenograft mice; assay type: in vivo; conditions: before tumor cell injection to day 21
From the text: Animals were weighed before tumor cell injection, and before sacrifice at day 21.

EGFR = target: T1, EGFR (Homo sapiens, UniProt P00533); test: EGF-induced EGFR phosphorylation, Western blot in OVCAR 5 cells; assay type: cell-based; conditions: 10 ng/ml EGF 15 min
T1 construct: endogenous in cells; host or cells: OVCAR 5 cells
Experimental: as §1

[2] = system: EGFR-overexpressing A-431 cells; test: Phototoxicity and competition studies, MTT assay; assay type: cell-based, human; conditions: incubation periods much shorter than 6 hours
Experimental: Preliminary phototoxicity studies were conducted using EGFR-overexpressing A-431 cells.
Cells were plated in 2 ml of media in 35 mm tissue culture dishes at densities such that the cells reached approximately 60 to 80% confluence at the end of a three-day growth period. Following an initial period of at least 14 to 20 hours, which allowed for cells to attach and begin dividing, incubation with PICs or free BPD was initiated by replacing the original 2 ml of media with 2 to 4 ml of medium containing PIC or free BPD. Incubations were done at 37° C. and were begun with respect to the end of the three-day growth period. At the end of the three-day growth period, the medium containing PIC or free BPD was removed. Cells were washed once with 2 ml of DPBS, and 2 ml of fresh medium was added back to each dish. Cells were then immediately irradiated with the requisite light dose. Following irradiation, cells were incubated overnight at 37° C. and then assayed for viability by the calorimetric MTT assay (Mosmann, 1983). Except for the intended light dose, care was taken to protect the cells from light exposure at all times.
The radiation source was a dye laser pumped by an argon ion laser (models CR-599 and Innova 100, respectively, Coherent Inc., Palo Alto, Calif.). […]

CHO-ERBB2 cells = test: PDT/PIT phototoxicity, MTT assay, CHO-ERBB2 cells; assay type: cell-based; conditions: 140 nM, light dose of 2 J/cm^2, MTT 24 hours after illumination
Experimental: (§3) This light was focused to a spot of 3.5 cm diameter, which corresponded to a power density of circa 40 mW/cm^2.
(§4) To determine the survival fraction of cells after treatment, the 3-(4,5-dimethylthiazol-2-yl)-2,5-diphenyltetrazolium bromide (“MTT”) assay, which measured mitochondrial dehydrogenase activity, was used. Cells were incubated with 0.5 mg/ml MTT for 1 hour to measure its reduction by mitochondrial dehydrogenases.

MAPK/ERK = test: EGF-induced MAPK/ERK phosphorylation, Western blot in OVCAR-5 cells; assay type: cell-based, human
Experimental: as §1, §2

[3] = Fluorescence decay and relative fluorescence quantum yield; assay type: physicochemical; conditions: 50% DMSO/50% aqueous solution
Experimental: In order to assess how conjugation to the antibody affected the ability of BPD to generate phototoxic species, relative fluorescence quantum yields and fluorescence decay signals for free BPD and for the various BPD PIC preparations were measured. Although fluorescence is a photophysical property of the singlet excited state of a photosensitizer, fluorescence quantum yields and decay times generally correlate with a photosensitizer's ability to generate phototoxic species. This correlation stems from the fact that a photosensitizer's phototoxic quantum yield usually correlates with its triplet quantum yield. […]
Fluorescence properties were measured in 50% DMSO/50% aqueous solutions in order to overcome the tendency of BPD to aggregate in a purely aqueous solution. Relative fluorescence quantum yields for free BPD and for various PIC samples with varying BPD:antibody molar loading ratios were calculated from the ratios of the slopes of fluorescence emission intensity versus absorbance plots. The fluorescence emission intensity versus absorbance plot for a given sample was generated by measuring the emission intensities of a series of dilute solutions prepared from a concentrated stock solution of the sample. […] Fluorescence emission intensity was measured as the area under the fluorescence emission peak in the 650 to 800 nm range. […]

NIH:OVCAR-5 cells [4] = test: Long term survival, intraperitoneal ovarian carcinoma xenograft; assay type: in vivo, mice
From the text: A different group of animals was utilized to investigate survivability. Animals with rapid tumor progression leading to uncontrollable ascites or systemic illness were sacrificed. Animals were sacrificed based on the following parameters: loss of more than 15% body weight, severe pain not relieved by analgesics, self-mutilating behavior, inability or unwillingness to eat or drink, and weight gain of more than 20% body weight. At the time of necropsy, samples were weighed and collected as previously described.

[5] = Solubility and stability in DMSO/aqueous solutions and on storage; assay type: physicochemical; conditions: DMSO/aqueous solution
NIH:OVCAR-5 cells [6] = test: Tumoricidal response, intraperitoneal ovarian carcinoma xenograft, tumor burden at day 21; conditions: for Tumor Burden: necropsy day 21; for Survival Fraction: tumor burden relative to no treatment
Experimental: NIH:OVCAR-5 cells were obtained from the Fox Chase Cancer Institute (Philadelphia, Pa.). Cells were grown in RPMI-1640 media (Mediatech Inc, Herndon, Va.) supplemented with 10% heat-inactivated fetal calf serum (GIBCO Life Technologies, Grand Island, N.Y.), and 100 U/ml penicillin and 100 μg/ml streptomycin. The cells were maintained in an incubator at 37° C. in an atmosphere of 5% CO2. At the time of NIH:OVCAR-5 cell injection, mice were given a numeric ear tag. Animals were anesthetized before the cell injection with 0.03 ml of a ketamine/xylazine mixture (ketamine, 120 mg/kg; xylazine, 15 mg/kg).
Intraperitoneal (“i.p.”) PDT in the nude mice was performed as previously described (Molpus et al., 1996a). On day 10 and 20 after tumor cell injection, mice in BPD treatment and/or control groups 2, 4, 6, and 8 were injected with 0.25 mg/kg body weight of liposomal BPD-MA i.p. 90 minutes prior to light exposure. Light was not administered to animals in groups 1, 2, 5, and 6. BPD-MA solutions were prepared immediately prior to use in sterile PBS (total of 1 ml). All work involving BPD-MA was performed in subdued lighting.
Animals which had to be illuminated were injected with 2 mL of a 0.1% intralipid solution i.p. prior to illumination to enhance light scattering. Animals were anesthetized with 0.03 ml of a ketamine/xylazine mixture (ketamine, 35 mg/ml; xylazine, 5 mg/ml). A solid state diode laser was used for illumination (BWF 690-1, B&W TEK, Newark, Del.), which delivers monochromatic light (690+/−5 nm) to overlap closely the absorption maximum of BPD-MA (690 nm), at a maximum power from the diode of 1 W. Alternatively, an argon-pumped dye laser (Coherent) was used to deliver 690 nm light i.p. via a cylindrically diffusing fiberoptic tip (8.0 mm×0.4 mm). The fiber, connected to the Argon-pumped dye laser or the solid state diode laser was introduced into the peritoneal cavity of a supine anesthetized animal via a centrally placed 22-gauge catheter traversing the abdominal cavity. A total of 20 J of light was delivered, at a fluence rate of 100-200 mw/cm^2. Of the total light energy, one fourth (5 J) was delivered to each i.p. quadrant over equivalent time periods. At the completion of the treatment, the mice were allowed to recover in an animal warmer until they awoke and resumed normal activity.
Two endpoints were studied. The first endpoint studied was short-term tumor weight. The second endpoint studied was long-term survival. In the short-term tumor weight studies, animals were sacrificed on day 21 to assess acute treatment effects. Animals were also carefully examined for the presence of distinct extra-abdominal metastasis. Representative tissue samples were examined pathologically via hematoxylin and eosin staining.
Tumoricidal response was assessed by comparing the extent of gross residual disease in treated animals to the extent of disease in untreated controls. Using the distribution pattern of the tumor in the OVCAR-5 human xenograft mouse model, which 20 was previously described (Molpus et al., 1996b), the sites where tumor was consistently present were dissected.

OVCAR-5 cells = test: PDT/PIT phototoxicity, MTT assay, OVCAR-5 cells; assay type: cell-based, human; conditions: with light, dose giving 50% survival after 24 hours, compared to control cells
Experimental: as §3, §4
The MTT assay was performed 24 and 72 hours after treatment.

[7] = no light, BPD […] i.p. days 10, 20, C225 0.5 mg i.p. days 11, 14, 17, 19
[8] = with light (20 J, 690 nm i.p.), same doses

For BPD Verteporfin, which “EGF-induced phosphorylation of Akt-1” value (Akt-1; alone, no light) is on record?
The value was “responded like control cells”.

And the “EGF-induced phosphorylation of Akt-1” value (Akt-1; plus light)?
The value was “did not have an inhibitory effect; also recorded: not by treatment with BPD plus light”.

And the “Weight Loss In Grams” value [1, 7]?
The value was 2.01 Grams.

And the “Weight Loss In Grams” value [1, 8]?
The value was 2.14 Grams.

And the “EGF-induced EGFR phosphorylation” value (EGFR; 140 nM alone, no light)?
The value was “reacted like control cells”.

And the “EGF-induced EGFR phosphorylation” value (EGFR; 140 nM plus light)?
Its value is “did not inhibit; also recorded: no inhibitory effect”.

What about the phototoxic cell killing [2] of the same substance?
The phototoxic cell killing was “greater than 90%”.

What about the viability (CHO-ERBB2 cells) of the same substance?
The viability was “less than 20%”.

What about the “EGF-induced phosphorylation of MAPK/ERK” value (MAPK/ERK; alone, no light) of the same substance?
Its value is “responded like control cells”.

And the “EGF-induced phosphorylation of MAPK/ERK” value (MAPK/ERK; plus light)?
The value was “did not have an inhibitory effect; also recorded: not by treatment with BPD plus light”.

And the “weighted-average fluorescence decay lifetime” value ([3]; emission 700 nm)?
The value was 6.02 ns.

And the “relative fluorescence quantum yield” value ([3]; excitation 428 nm)?
The value was 1.00.

What about the “survival compared with untreated mice” value (NIH:OVCAR-5 cells [4]; comparison of survival curves, PDT and combination with light, C225 alone without) of the same substance?
Its value is “significantly longer survival rates”.

What about the “mice still alive after 6 months (180 days)” value (NIH:OVCAR-5 cells [4]; with light, 9 mice per group) of the same substance?
The value was 10%.

And the 50% alive (NIH:OVCAR-5 cells [4]; with light, days on which 50% of the mice have died)?
The 50% alive was 36 (CI 32-90) days.

And the “DMSO content above which free BPD goes from predominantly aggregated to predominantly disaggregated monomeric state” value [5]?
The value was greater than 40%.

And the DL (NIH:OVCAR-5 cells [6]; Steel-Peckham interaction of the components in the formula, with light (hv))?
Its DL is 0.493.

What about the Effect (NIH:OVCAR-5 cells [6]; Steel-Peckham interaction, with light (hv)) of the same substance?
Its Effect is “synergistic”.

What about the lnSF (NIH:OVCAR-5 cells [6]; no light) of the same substance?
The lnSF was −0.4084.

What about the “Tumor Burden” value (NIH:OVCAR-5 cells [6]; [7]) of the same substance?
The value was 469 mg.

And the “Survival Fraction” value (NIH:OVCAR-5 cells [6]; no light)?
Its value is 0.69.

What about the lnSF (NIH:OVCAR-5 cells [6]; with light) of the same substance?
The lnSF was −0.962.

What about the “Tumor Burden” value (NIH:OVCAR-5 cells [6]; [8]) of the same substance?
The value was 261 mg.

And the “tumor burden as % of the no treatment control group” value (NIH:OVCAR-5 cells [6]; with light, day 21)?
Its value is 38%.

What about the “tumor burden in the bowel mesentery” value (NIH:OVCAR-5 cells [6]; with light, day 21) of the same substance?
Its value is “statistically significant reduction in tumor burden”.

What about the “Survival Fraction” value (NIH:OVCAR-5 cells [6]; with light) of the same substance?
The value was 0.38.

And the “increase in MTT activity between the 24 and 72 hours time-point” value (OVCAR-5 cells)?
Its value is 15%.
